Laboratory results reported in patent publication US20240208992A1, “MACROCYCLES AS CFTR MODULATORS” (Idorsia Pharmaceuticals Ltd, priority 2021, published 2024).

Molecular target: human F508del-CFTR (Homo sapiens, UniProt P13569, DEL508-508)
Test: F508del-CFTR cell surface expression (corrector activity), DiscoveRx ß-galactosidase complementation chemiluminescence assay in recombinant U2OS cell line;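 also: U2OS cells co-expressing ProLink-tagged F508del-CFTR and a membrane-anchored enzyme acceptor, where more surface CFTR restores β-galactosidase activity measured by chemiluminescence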
Conditions: for EC50: EC50, F508del-CFTR cell surface expression; for Emax: U2OS
[1] = U2OS cell line, 16h compound incubation, geomean values
[2] = in relation to the Emax of the corrector lumacaftor (=100%), U2OS cell line, 16h compound incubation, arithmetic mean values
[3] = U2OS cells, 16h compound incubation, geomean values
[4] = in relation to Emax of corrector lumacaftor (=100%), arithmetic mean values
[5] = U2OS cells, 16h compound incubation, geomean of several measurements
[6] = in relation to the Emax of the corrector lumacaftor (=100%), U2OS cells, 16h compound incubation, arithmetic mean

Sequence of human F508del-CFTR (P13569 with tags, fused parts or gaps DEL508-508): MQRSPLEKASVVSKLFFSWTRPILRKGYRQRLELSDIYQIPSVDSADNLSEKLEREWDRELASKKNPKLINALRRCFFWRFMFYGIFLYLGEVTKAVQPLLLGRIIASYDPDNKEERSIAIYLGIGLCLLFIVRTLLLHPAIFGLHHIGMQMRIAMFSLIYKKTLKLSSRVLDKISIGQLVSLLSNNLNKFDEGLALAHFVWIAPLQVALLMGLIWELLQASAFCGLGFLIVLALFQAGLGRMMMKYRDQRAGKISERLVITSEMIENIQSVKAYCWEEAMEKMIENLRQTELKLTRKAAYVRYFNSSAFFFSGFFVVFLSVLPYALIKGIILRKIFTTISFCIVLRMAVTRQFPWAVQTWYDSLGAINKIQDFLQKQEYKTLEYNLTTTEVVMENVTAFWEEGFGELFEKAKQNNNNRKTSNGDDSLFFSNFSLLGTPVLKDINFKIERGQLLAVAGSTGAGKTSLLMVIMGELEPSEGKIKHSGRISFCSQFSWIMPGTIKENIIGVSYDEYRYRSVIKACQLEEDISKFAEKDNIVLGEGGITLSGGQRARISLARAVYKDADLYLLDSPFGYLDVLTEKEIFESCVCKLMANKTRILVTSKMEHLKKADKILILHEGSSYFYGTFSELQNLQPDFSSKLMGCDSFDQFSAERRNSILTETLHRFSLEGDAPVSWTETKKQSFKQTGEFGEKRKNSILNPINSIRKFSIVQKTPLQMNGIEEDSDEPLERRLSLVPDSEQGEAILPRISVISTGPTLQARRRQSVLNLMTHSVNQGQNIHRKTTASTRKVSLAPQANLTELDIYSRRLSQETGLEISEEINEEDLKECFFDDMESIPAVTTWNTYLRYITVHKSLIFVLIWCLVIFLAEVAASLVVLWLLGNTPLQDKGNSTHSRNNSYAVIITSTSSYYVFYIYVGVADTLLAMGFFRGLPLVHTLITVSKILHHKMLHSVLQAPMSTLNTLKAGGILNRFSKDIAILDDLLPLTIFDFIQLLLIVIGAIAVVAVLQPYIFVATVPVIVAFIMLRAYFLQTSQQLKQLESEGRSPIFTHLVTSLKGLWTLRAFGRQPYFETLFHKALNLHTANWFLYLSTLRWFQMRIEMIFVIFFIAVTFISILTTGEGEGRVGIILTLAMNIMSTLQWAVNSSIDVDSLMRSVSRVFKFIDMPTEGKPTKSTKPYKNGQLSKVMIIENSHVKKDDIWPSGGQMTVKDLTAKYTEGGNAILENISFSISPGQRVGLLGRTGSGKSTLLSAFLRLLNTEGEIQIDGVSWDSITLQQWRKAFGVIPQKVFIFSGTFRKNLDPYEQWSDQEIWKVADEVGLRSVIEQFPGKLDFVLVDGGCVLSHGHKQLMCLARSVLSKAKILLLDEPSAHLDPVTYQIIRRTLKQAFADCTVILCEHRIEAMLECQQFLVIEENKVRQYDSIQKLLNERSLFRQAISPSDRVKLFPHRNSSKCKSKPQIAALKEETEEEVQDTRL

EC50 [3] [nM] | Emax [4] [%] | EC50 [5] [nM] | Emax [6] [%] | Compound | EC50 [1] [nM] | also measured
305 | 314 |  |  | Cc1cc(CCNC(=O)[C@@H]2CC(=O)N(C)[C@@H](CC(C)C)C(=O)N3CCN(C4CC4)C[C@@H]3C(=O)N[C@H](Cc3ccccc3)COc3cnc4ccccc4c3C(=O)N2)on1 [Example 402, (9S,13S,19aR,22R)-22-benzyl-18-cyclopropyl-13-isobutyl-12-methyl-N-(2-(3-methylisoxazol-5-yl)ethyl)-7,11,14,20-tetraoxo-7,8,9,10,11,12,13,14,17,18,19,19a,20,21,22,23-hexadecahydro-16H-pyrazino[2′,11:6,7][1]oxa[4,7,10,14]tetraazacycloheptadecino[17,16-c]quinoline-9-carboxamide] |  | 
 |  | 358 | 305 | COc1cc2c(c(OC)n1)C(=O)N[C@H](C(=O)NCCc1cc(C)no1)CC(=O)N(C)[C@@H](CC(C)C)C(=O)N1CCCC[C@@H]1C(=O)N[C@H](Cc1ccccc1)CO2 [Example 869, (7S,11S,17aR,20R)-20-benzyl-11-isobutyl-2,4-dimethoxy-10-methyl-N-(2-(3-methylisoxazol-5-yl)ethyl)-5,9,12,18-tetraoxo-5,6,7,8,9,10,11,12,15,16,17,17a,18,19,20,21-hexadecahydro-14H-dipyrido[2,1-f:3′,4′-p][1]oxa[4,7,10,14]tetraazacycloheptadecine-7-carboxamide] |  | 
308 | 319 |  |  | CC(C)C[C@H]1C(=O)N(C)[C@H](C)C(=O)N[C@H](Cc2ccccc2)COc2cnc3ccccc3c2C(=O)N[C@H](C(=O)NCCc2cc(C3CC3)no2)CC(=O)N1C [Example 574, (3S,7S,10R,13R)-13-benzyl-N-(2-(3-cyclopropylisoxazol-5-yl)ethyl)-7-isobutyl-6,9,10-trimethyl-1,5,8,11-tetraoxo-1,2,3,4,5,6,7,8,9,10,11,12,13,14-tetradecahydro-[1]oxa[4,7,10,14]tetraazacycloheptadecino[17,16-c]quinoline-3-carboxamide] |  | 
 |  | 35 | 357 | COc1cc(CCNC(=O)[C@@H]2CC(=O)N(C)[C@@H](CC(C)C)C(=O)N(C)[C@H](CCOc3ccccc3)C(=O)N[C@H](Cc3ccccc3)COc3ccnc(OC)c3C(=O)N2)on1 [Example 856, (3R,6R,9S,13S)-3-benzyl-9-isobutyl-16-methoxy-N-(2-(3-methoxyisoxazol-5-yl)ethyl)-7,10-dimethyl-5,8,11,15-tetraoxo-6-(2-phenoxyethyl)-2,3,4,5,6,7,8,9,10,11,12,13,14,15-tetradecahydropyrido[3,4-p][1]oxa[4,7,10,14]tetraazacycloheptadecine-13-carboxamide] |  | 
 |  | 170 | 410 | Cc1cc2c(c3cccnc13)C(=O)N[C@H](C(=O)NCCn1nnc(C3CC3)n1)CC(=O)N(C)[C@@H](CC(C)C)C(=O)N1CCCC[C@@H]1C(=O)N[C@H](Cc1ccccc1)CO2 [Example 888, (9S,13S,19aR,22R)-22-benzyl-N-(2-(5-cyclopropyl-2H-tetrazol-2-yl)ethyl)-13-isobutyl-2,12-dimethyl-7,11,14,20-tetraoxo-7,8,9,10,11,12,13,14,17,18,19,19a,20,21,22,23-hexadecahydro-16H-pyrido[2′,1′:6,7][1]oxa[4,7,10,14]tetraazacycloheptadecino[16,17-f]quinoline-9-carboxamide] |  | 
168 | 366 |  |  | CC(C)C[C@H]1C(=O)N2CCCC[C@@H]2C(=O)N[C@H](Cc2ccccc2)COc2cnc3ccccc3c2C(=O)N[C@H](C(=O)NCCc2cc(C3CC3)no2)CC(=O)N1C [Example 642, (9S,13S,19aR,22R)-22-benzyl-N-(2-(3-cyclopropylisoxazol-5-yl)ethyl)-13-isobutyl-12-methyl-7,11,14,20-tetraoxo-7,8,9,10,11,12,13,14,17,18,19,19a,20,21,22,23-hexadecahydro-16H-pyrido[2′,1′:6,7][1]oxa[4,7,10,14]tetraazacycloheptadecino[17,16-c]quinoline-9-carboxamide] |  | 
173 | 305 |  |  | CC(C)C[C@H]1C(=O)N2CCCC[C@@H]2C(=O)N[C@H](Cc2ccccc2)COc2cnc3ccc(F)cc3c2C(=O)N[C@H](C(=O)NCCc2cc(C3CC3)on2)CC(=O)N1C [Example 639, (9S,13S,19aR,22R)-22-benzyl-N-(2-(5-cyclopropylisoxazol-3-yl)ethyl)-5-fluoro-13-isobutyl-12-methyl-7,11,14,20-tetraoxo-7,8,9,10,11,12,13,14,17,18,19,19a,20,21,22,23-hexadecahydro-16H-pyrido[2′,1′:6,7][1]oxa[4,7,10,14]tetraazacycloheptadecino[17,16-c]quinoline-9-carboxamide] |  | 
 |  | 337 | 324 | COc1nc(C)cc2c1C(=O)N[C@H](C(=O)NCCc1cc(C)no1)CC(=O)N(C)[C@@H](CC(C)C)C(=O)N(C)[C@H](C(C)(C)C)C(=O)N[C@H](Cc1ccccc1)CO2 [Example 866, (3R,6R,9S,13S)-3-benzyl-6-(tert-butyl)-9-isobutyl-16-methoxy-7,10,18-trimethyl-N-(2-(3-methylisoxazol-5-yl)ethyl)-5,8,11,15-tetraoxo-2,3,4,5,6,7,8,9,10,11,12,13,14,15-tetradecahydropyrido[3,4-p][1]oxa[4,7,10,14]tetraazacycloheptadecine-13-carboxamide] |  | 
 |  | 96 | 385 | COc1cc(CCNC(=O)[C@@H]2CC(=O)N(C)[C@@H](CC(C)C)C(=O)N(C)[C@H](CCc3nc(C4CCCC4)no3)C(=O)N[C@H](Cc3ccccc3)COc3ccnc(OC)c3C(=O)N2)on1 [Example 884, (3R,6R,9S,13S)-3-benzyl-6-(2-(3-cyclopentyl-1,2,4-oxadiazol-5-yl)ethyl)-9-isobutyl-16-methoxy-N-(2-(3-methoxyisoxazol-5-yl)ethyl)-7,10-dimethyl-5,8,11,15-tetraoxo-2,3,4,5,6,7,8,9,10,11,12,13,14,15-tetradecahydropyrido[3,4-p][1]oxa[4,7,10,14]tetraazacycloheptadecine-13-carboxamide] |  | 

More lines, now with the values behind:

Compound | EC50 [3] [nM] | Emax [4] [%] | EC50 [5] [nM] | Emax [6] [%] | EC50 [1] [nM] | also measured
COc1cccc(CCNC(=O)[C@@H]2CC(=O)N(C)[C@@H](CC(C)C)C(=O)N3CCN(C4CC4)C[C@@H]3C(=O)N[C@H](Cc3ccccc3)COc3ccc4ccccc4c3C(=O)N2)c1 [Example 356, (4aR,7R,18S,22S)-7-benzyl-3-cyclopropyl-22-isobutyl-N-(3-methoxyphenethyl)-21-methyl-5,16,20,23-tetraoxo-2,3,4,4a,5,6,7,8,16,17,18,19,20,21,22,23-hexadecahydro-1H-naphtho[1,2-p]pyrazino[2,1-f][1]oxa[4,7,10,14]tetraazacycloheptadecine-18-carboxamide] |  |  |  |  | 167 | Emax [2]: 353%
CC(C)C[C@H]1C(=O)N2CCCC[C@@H]2C(=O)N[C@H](Cc2ccccc2)COc2ccc3ncn(C)c3c2C(=O)N[C@H](C(=O)NCCc2nc3c(s2)CCC3)CC(=O)N1C [Example 29, (8S,12S,18aR,21R)-21-benzyl-N-(2-(5,6-dihydro-4H-cyclopenta[d]thiazol-2-yl)ethyl)-12-isobutyl-5,11-dimethyl-6,10,13,19-tetraoxo-6,7,8,9,10,11,12,13,16,17,18,18a,19,20,21,22-hexadecahydro-5H,15H-imidazo[4′,5′:5,6]benzo[1,2-p]pyrido[2,1-f][1]oxa[4,7,10,14]tetraazacycloheptadecine-8-carboxamide] |  |  |  |  | 439 | Emax [2]: 140%
COc1cccc(CCNC(=O)[C@@H]2CC(=O)N(C)[C@@H](CC(C)C)C(=O)N(C)CC(=O)N[C@H](Cc3ccccc3)COc3ccc4c(c3C(=O)N2)OC(F)(F)O4)c1 [Example 409, (8R,14S,18S)-8-benzyl-2,2-difluoro-14-isobutyl-N-(3-methoxyphenethyl)-12,15-dimethyl-10,13,16,20-tetraoxo-7,8,9,10,11,12,13,14,15,16,17,18,19,20-tetradecahydro-[1,3]dioxolo[4′,5′:5,6]benzo[1,2-p][1]oxa[4,7,10,14]tetraazacycloheptadecine-18-carboxamide] | 214 | 144 |  |  |  | 
COc1cccc(CCNC(=O)[C@@H]2CC(=O)N(C)[C@@H](CC3CCCC3)C(=O)N(C[C@@H]3CCCCO3)CC(=O)N[C@H](Cc3ccccc3)COc3ccc4ccccc4c3C(=O)N2)c1 (mixture of isomers) [Example 295, (3RS,7S,13R)-13-benzyl-7-(cyclopentylmethyl)-N-(3-methoxyphenethyl)-6-methyl-1,5,8,11-tetraoxo-9-(((R)-tetrahydro-2H-pyran-2-yl)methyl)-1,2,3,4,5,6,7,8,9,10,11,12,13,14-tetradecahydronaphtho[1,2-p][1]oxa[4,7,10,14]tetraazacycloheptadecine-3-carboxamide] |  |  |  |  | 202 | 
CC(C)C[C@H]1C(=O)N2CCOC[C@@H]2C(=O)N[C@H](Cc2ccccc2)COc2ccc3ccccc3c2C(=O)N[C@H](C(=O)NCCc2cccc(Br)c2)CC(=O)N1C [Example 378, (4aR,7R,18S,22S)-7-benzyl-N-(3-bromophenethyl)-22-isobutyl-21-methyl-5,16,20,23-tetraoxo-1,2,4,4a,5,6,7,8,16,17,18,19,20,21,22,23-hexadecahydronaphtho[1,2-p][1,4]oxazino[3,4-f][1]oxa[4,7,10,14]tetraazacycloheptadecine-18-carboxamide] |  |  |  |  | 45 | Emax [2]: 138%
CCc1ccc(CCNC(=O)[C@@H]2CC(=O)N(C)[C@@H](CC(C)C)C(=O)N(C)CC(=O)N[C@H](Cc3ccccc3)COc3cc4c(cc3C(=O)N2)OCO4)cc1 [Example 227, (7R,13S,17S)-7-benzyl-N-(4-ethylphenethyl)-13-isobutyl-11,14-dimethyl-9,12,15,19-tetraoxo-6,7,8,9,10,11,12,13,14,15,16,17,18,19-tetradecahydro-[1,3]dioxolo[4′,5′:4,5]benzo[1,2-p][1]oxa[4,7,10,14]tetraazacycloheptadecine-17-carboxamide] |  |  |  |  | 290 | Emax [2]: 103%
